# Source: US20240148821A1, “PHARMACEUTICAL USE OF CYCLIC PEPTIDE COMPOUND” (CHUGAI SEIYAKU KABUSHIKI KAISHA, priority 2021, published 2024)
# pIC50: −log10 of the molar value. Numbered stars: 1 amine (or outer) side, 2 acyl side, 3 side chain; on linkers, the order of the positions; unused ones are H or OH. Bridge positions count the residues as written; N and C are the ends. Square brackets hold non-standard residues; d marks the D form. Peptide text beside a SMILES is read from it. * marks the point of attachment. hPhe(3,5-F2-4-CF3) = N[C@@H](CCc1cc(F)c(C(F)(F)F)c(F)c1)C(=O)O; hPhe(3-Cl-4-CF3) = N[C@@H](CCc1ccc(C(F)(F)F)c(Cl)c1)C(=O)O; hPhe(3-F,4-CF3) = N[C@@H](CCc1ccc(C(F)(F)F)c(F)c1)C(=O)O; NEtPhe(4-CF3) = CCN[C@@H](Cc1ccc(C(F)(F)F)cc1)C(=O)O; NMePhe(4-CF3) = CN[C@@H](Cc1ccc(C(F)(F)F)cc1)C(=O)O; 3Oxa8azabicyclo(3.2.1)octane = C1CC2COCC1N2*; NMePhe(4-Cl) = CN[C@@H](Cc1ccc(Cl)cc1)C(=O)O; NMePhe(4-Me) = CN[C@@H](Cc1ccc(C)cc1)C(=O)O; NMedβ3hAla = C[C@H](CC(=O)[*:2])N(C)[*:1]; NMeAla(cPent) = CN[C@@H](CC1CCCC1)C(=O)O; NMeGly(cPent) = CN[C@H](C(=O)O)C1CCCC1; Phe(3-I) = N[C@@H](Cc1cccc(I)c1)C(=O)O; Pro(4,4-F2) = O=C(O)[C@@H]1CC(F)(F)CN1; X28 = O=C(CN(C1CC2(COC2)C1)[*:1])[*:2]; NMeCha = CN[C@@H](CC1CCCCC1)C(=O)O; NMehLeu = CN[C@@H](CCC(C)C)C(=O)O; Hyp = O=C(O)[C@@H]1C[C@@H](O)CN1; NMeChg = CN[C@H](C(=O)O)C1CCCCC1; NMeI = CC[C@H](C)[C@H](NC)C(=O)O; NMeD = CN[C@@H](CC(=O)O)C(=O)O; NMeL = CN[C@@H](CC(C)C)C(=O)O; NMeV = CN[C@H](C(=O)O)C(C)C; Trifluoroethyl = FC(F)(F)C*; d(β3hA) = C[C@@H](N)CC(=O)O; NMeC = CN[C@@H](CS)C(=O)O; Pip = O=C(O)[C@@H]1CCCCN1; NMeA = CN[C@@H](C)C(=O)O; NMeAib = CNC(C)(C)C(=O)O; Nle = CCCC[C@H](N)C(=O)O; Piperidide = C1CCN(*)CC1; dNMeA = CN[C@H](C)C(=O)O; Ac5c = NC1(C(=O)O)CCCC1; Aze = O=C(O)[C@@H]1CCN1; Ac4c = NC1(C(=O)O)CCC1; Sar = CNCC(=O)O
# Legend:
# [1] = target: protein-protein interaction between Kras and SOS1 (biotin-tagged human Kras loaded with GDP, His-tagged human SOS1) (Homo sapiens (Human), UniProt P01116, G12D); assay: Protein-protein interaction inhibition between Kras and SOS1 (KrasG12D-SOS PPI) using AlphaScreen; assay type: biochemical; details: AlphaScreen; biotin-tagged human Kras loaded with GDP, His-tagged human SOS1; read-out: KRAS G12D-SOS PPI IC50;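 further: kras produced in E. coli, Ni-coupled donor beads and streptavidin acceptor beads, excitation 680 nm with emission detected at 520–620 nm via singlet oxygen transfer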
# [2] = system: Human pancreatic cancer cell line AsPC-1 (G12D mutation Kras); assay: AsPC-1 cell growth inhibition (AsPC-1 CGI); assay type: cell-based; details: read-out: AsPC-1 cell growth inhibition, 50% growth inhibitory concentration (IC50 value); 96 hours, CellTiter-Glo, values classified in ranges
# Method: Test compounds were serially dilated with dimethyl sulfoxide, and 200 nL was then dispensed to a U-bottom 96-well plate using Labcyte Echo. […] The cell suspension was dispensed to a. plate containing a test compound at 100 μL per well and incubated at 37° C. in a 5% carbon dioxide gas incubator. 96 hours later, 80 μL of CellTiter-Glo (Promega) was added to each well and fluorescence was measured.
SMILES,pIC50 [1],pIC50 [2]
CCO[C@@H]1C[C@H]2C(=O)NC3(CCC3)C(=O)N(C)[C@@H]([C@@H](C)CC)C(=O)N(C)[C@H](C)CC(=O)N(C)[C@@H](CC(C)C)C(=O)N[C@@H]([C@@H](C)CC)C(=O)N(C)[C@@H](C)C(=O)N3CC[C@H]3C(=O)N(CC)[C@@H](Cc3ccc(C(F)(F)F)cc3)C(=O)N(C)CC(=O)N[C@@H](CCc3ccc(C(F)(F)F)c(Cl)c3)C(=O)N2C1 [Compound 547] (cyclo([Ac4c][NMeI][NMedβ3hAla][NMeL]I[NMeA][Aze][NEtPhe(4-CF3)][Sar][hPhe(3-Cl-4-CF3)][Hyp](Et))),9.00,≥ 7.70
CC[C@H](C)[C@@H]1NC(=O)[C@H](C)N(C)C(=O)C[C@@H](C)NC(=O)[C@H](C2CCCC2)N(C)C(=O)C2(CCCC2)NC(=O)[C@@H]2CCCN2C(=O)[C@H](CCc2ccc(C(F)(F)F)c(Cl)c2)NC(=O)[C@@H](C)N(C)C(=O)[C@H](Cc2ccc(C)cc2)N(C)C(=O)[C@@H]2CCN2C(=O)[C@H](C)N(C)C1=O [Compound 1536] (cyclo([Ac5c][NMeGly(cPent)][d(β3hA)][NMeA]I[NMeA][Aze][NMePhe(4-Me)][dNMeA][hPhe(3-Cl-4-CF3)]P)),7.68,< 6.30
"CCO[C@@H]1C[C@H]2C(=O)NC3(CCCC3)C(=O)N(C)[C@@H](C3CCCC3)C(=O)N(C)[C@H](C(=O)N(C)C)CSCC(=O)N(C)[C@@H](CC(C)C)C(=O)N[C@@H]([C@@H](C)CC)C(=O)N(C)[C@@H](C)C(=O)N3CC[C@H]3C(=O)N(C)[C@@H](CC3CCCCC3)C(=O)N(C)CC(=O)N[C@@H](CCc3cc(F)c(C(F)(F)F)c(F)c3)C(=O)N2C1 [Compound 2176, (3S,9S,12S,17S,20S,23S,29R,32S,38S,40R)-20-[(2S)-butan-2-yl]-9-(cyclohexylmethyl)-32-cyclopentyl-3-[2-[3,5-difluoro-4-(trifluoromethyl)phenyl]ethyl]-40-ethoxy-N,N,7,10,17,18,24,30,33-nonamethyl-23(2-methylpropyl)-2,5,8,11,16,19,22,25,31,34,37-undecaoxospiro[27-thia-1,4,7,10,15,18,21,24,30,33,36-undecazatricyclo[36.3.0.012,15]hentetracontane-35,1′-cyclopentane]-29-carboxamide] ({CH2CO}-[NMeL]I[NMeA][Aze][NMeCha][Sar][hPhe(3,5-F2-4-CF3)][Hyp](Et)[Ac5c][NMeGly(cPent)][NMeC]-NMe2; thioether N-11)",6.92,< 6.30
CC[C@H](C)[C@@H]1NC(=O)[C@H](CC(C)C)N(C)C(=O)C[C@@H](C(=O)N2CCCCC2)N(C)C(=O)[C@H](C2CCCCC2)N(C)C(=O)C2(CCCC2)NC(=O)CN(C2CC3(COC3)C2)C(=O)[C@H](CCc2ccc(C(F)(F)F)c(Cl)c2)NC(=O)CN(C)C(=O)[C@H](CC2CCCCC2)N(C)C(=O)CN(C)C(=O)CN(C)C1=O [Compound 2030] ([NMeL]I[Sar][Sar][NMeCha][Sar][hPhe(3-Cl-4-CF3)][X28][Ac5c][NMeChg][NMeD]-Piperidide; lactam N-11),8.64,< 6.30
CC[C@H](C)[C@@H]1NC(=O)[C@H](CC(C)C)N(C)C(=O)C[C@@H](C(=O)N2CCCCC2)N(C)C(=O)[C@H](CCC(C)C)N(C)C(=O)C2(CCCC2)NC(=O)[C@@H]2CCCN2C(=O)[C@H](CCc2ccc(C(F)(F)F)c(Cl)c2)NC(=O)CN(C)C(=O)[C@H](CC2CCCCC2)N(C)C(=O)[C@@H]2CCN2C(=O)[C@H](C)N(C)C1=O [Compound 1776] ([NMeL]I[NMeA][Aze][NMeCha][Sar][hPhe(3-Cl-4-CF3)]P[Ac5c][NMehLeu][NMeD]-Piperidide; lactam N-11),7.62,< 6.30
"CCCC[C@@H]1NC(=O)[C@H](CCc2ccc(C(F)(F)F)c(F)c2)NC(=O)CN(C)C(=O)[C@H](Cc2ccc(Cl)cc2)N(C)C(=O)CN(C)C(=O)CN(C)C(=O)[C@H]([C@@H](C)CC)NC(=O)[C@H](CC(C)C)N(C)C(=O)C[C@@H](C)N(C)C(=O)[C@H](CC(C)C)NC(=O)C(C)(C)N(C)C1=O [Compound 165] (cyclo(I[Sar][Sar][NMePhe(4-Cl)][Sar][hPhe(3-F,4-CF3)][Nle][NMeAib]L[NMedβ3hAla][NMeL]))",7.39,< 6.30
CCO[C@@H]1C[C@H]2C(=O)NC3(CCCC3)C(=O)N(C)[C@@H](C3CCCC3)C(=O)N(C)[C@H](C)CC(=O)N(C)[C@@H](CC(C)C)C(=O)N[C@@H]([C@@H](C)CC)C(=O)N(C)[C@@H](C)C(=O)N3CC[C@H]3C(=O)N(C)[C@@H](Cc3ccc(C(F)(F)F)cc3)C(=O)N(C)CC(=O)N[C@@H](CCc3ccc(C(F)(F)F)c(Cl)c3)C(=O)N2C1 [Compound 640] (cyclo([Ac5c][NMeGly(cPent)][NMedβ3hAla][NMeL]I[NMeA][Aze][NMePhe(4-CF3)][Sar][hPhe(3-Cl-4-CF3)][Hyp](Et))),9.07,≥ 7.70
CC(C)C[C@H]1C(=O)N[C@@H](COCC(F)(F)F)C(=O)N(C)[C@@H](C)C(=O)N2CC[C@H]2C(=O)N(C)[C@@H](CC2CCCCC2)C(=O)N(C)CC(=O)N[C@@H](CCc2ccc(C(F)(F)F)c(Cl)c2)C(=O)N2CCC[C@H]2C(=O)NC2(CCCC2)C(=O)N(C)[C@@H](C(C)C)C(=O)N(C)[C@H](C(=O)N2CCCCC2)CC(=O)N1C [Compound 304] ([NMeL]S(Trifluoroethyl)[NMeA][Aze][NMeCha][Sar][hPhe(3-Cl-4-CF3)]P[Ac5c][NMeV][NMeD]-Piperidide; lactam N-11),7.06,< 6.30
CCCC[C@@H]1NC(=O)[C@H](Cc2cccc(I)c2)NC(=O)CN(C)C(=O)[C@H](CC2CCCC2)N(C)C(=O)[C@@H]2CCN2C(=O)[C@H](C)N(C)C(=O)[C@H]([C@@H](C)CC)NC(=O)[C@@H]2CCCCN2C(=O)C[C@@H](C(=O)N2CCCCC2)N(C)C(=O)[C@H](CC(C)C)NC(=O)C(C)(C)N(C)C1=O [Compound 1424] ([Pip]I[NMeA][Aze][NMeAla(cPent)][Sar][Phe(3-I)][Nle][NMeAib]L[NMeD]-Piperidide; lactam N-11),6.70,< 6.30
"CC[C@H](C)[C@@H]1NC(=O)[C@H](CC(C)C)N(C)C(=O)C[C@@H](C(=O)N(C)C)N(C)C(=O)[C@H](C2CCCC2)N(C)C(=O)C2(CCCC2)NC(=O)[C@@H]2CC(F)(F)CN2C(=O)[C@H](CCc2ccc(C(F)(F)F)c(F)c2)NC(=O)CN(C)C(=O)[C@H](CC2CCCCC2)N(C)C(=O)[C@@H]2CCN2C(=O)[C@H](C)N(C)C1=O [Compound 1264] ([NMeL]I[NMeA][Aze][NMeCha][Sar][hPhe(3-F,4-CF3)][Pro(4,4-F2)][Ac5c][NMeGly(cPent)][NMeD]-NMe2; lactam N-11)",9.27,≥ 7.70
CC[C@H](C)[C@@H]1NC(=O)[C@H](CC(C)C)N(C)C(=O)C[C@@H](C(=O)N2C3CCC2COC3)N(C)C(=O)[C@H](C2CCCC2)N(C)C(=O)C2(CCCC2)NC(=O)[C@@H]2CCCN2C(=O)[C@H](CCc2ccc(C(F)(F)F)c(Cl)c2)NC(=O)CN(C)C(=O)[C@H](C2CCCC2)N(C)C(=O)[C@@H]2CCN2C(=O)[C@H](C)N(C)C1=O [Compound 721] ([NMeL]I[NMeA][Aze][NMeGly(cPent)][Sar][hPhe(3-Cl-4-CF3)]P[Ac5c][NMeGly(cPent)][NMeD]-{3Oxa8azabicyclo(3.2.1)octane}; lactam N-11),8.82,≥ 7.70
